Experimental data published in the METLIN SMRT retention time set (Domingo-Almenara et al. 2019).

Experiment: gradient 5% acetonitrile 3 min, to 50% in 2 min, to 85% in 15 min, held 3 min, 100 µL/min
Details: column: Zorbax Extend-C18 2.1 x 50 mm; eluents: water / acetonitrile, 0.1% formic acid
How it was run: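 Pure standards were analyzed in mixtures of ~100 molecules using HPLC coupled to a quadrupole time-of-flight mass spectrometer, in both positive and negative ionization mode. Separation used a Zorbax Extend-C18 column (2.1 × 50 mm, 1.8 μm) at 100 μL/min, with water and acetonitrile each containing 0.1% formic acid. Dead and dwell volumes were 40 μL and 900 μL, and data were collected over 3 months. Retention time was read from computationally picked adduct peaks, each inspected manually.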

## O=C(c1cccs1)N1CCc2ccc(NS(=O)(=O)c3ccccc3Cl)cc2C1
  RP-LC retention time: 804 s

## COC(=O)C1=C(N)Oc2cc(C)n(CCN(C)C)c(=O)c2C1c1ccccc1F (centres undefined)
  RP-LC retention time: 616 s

## O=C(NC1CCN(c2cc(-c3ccc(Cl)cc3)[nH]n2)C1)c1ccncc1 (centres undefined)
  RP-LC retention time: 643 s

## CCc1ccc(-c2cc(C(F)(F)F)on2)cc1S(=O)(=O)N1CCN(c2ncccn2)CC1
  RP-LC retention time: 1230 s

## CC(=O)c1ccc(N=NC(C(N)=O)C2NC(C)(C)Cc3ccccc32)cc1 (centres undefined)
  RP-LC retention time: 794 s

## CN(C)C(=O)c1n[nH]c2c1CN(C(=O)c1cc(F)ccc1F)CC2
  RP-LC retention time: 617 s

## COc1ccccc1OCC1c2ccsc2CCN1C(=O)CN(C(=O)NC(C)C)C(C)(C)C (centres undefined)
  RP-LC retention time: 595 s

## Cc1ccc(-c2noc(Cn3ccn(-c4cccc(Cl)c4)c(=O)c3=O)n2)cc1
  RP-LC retention time: 920 s

## CCCN1N=C(C(=O)N2CCC(C)CC2)S(=O)(=O)c2ccc(C)cc21
  RP-LC retention time: 993 s

## CCc1ccc(-c2cc(C(=O)N3CCN(Cc4noc5ccccc45)CC3)[nH]n2)cc1
  RP-LC retention time: 772 s

## O=C(c1cc2ccccc2[nH]1)N1CCCn2nc(-c3cccs3)cc2C1
  RP-LC retention time: 899 s

## O=C(NCc1ccco1)c1ccc(OCc2nc(C3CC3)cs2)cc1
  RP-LC retention time: 825 s

## O=C(Nc1ccc(F)cc1F)N1CCC(N(C(=O)C2CC2)C2CCOCC2)CC1
  RP-LC retention time: 719 s

## Cc1nc(-c2ccc(S(=O)(=O)Nc3cccnc3)cc2)co1
  RP-LC retention time: 640 s

## O=C(Nc1nnc(-c2ccc3c(c2)CCCC3)o1)c1ccc([N+](=O)[O-])o1
  RP-LC retention time: 918 s

## Cc1ccc(-n2c(=O)c3c(cc(C)n3C)n(CC(=O)Nc3c(C)cc(C)cc3C)c2=O)cc1
  RP-LC retention time: 626 s

## Cc1c(Cl)cccc1NC(=O)C1CCN(S(=O)(=O)c2ccc3c(c2)NC(=O)C(C)O3)CC1 (centres undefined)
  RP-LC retention time: 858 s

## COc1ccc2nc(NC3=NCN(Cc4ccco4)CN3)nc(C)c2c1
  RP-LC retention time: 640 s

## O=C(CCCc1ccccc1)NCC1CN(c2ccc3c(c2)OCO3)C(=O)O1 (centres undefined)
  RP-LC retention time: 750 s

## CSc1ccc(NC(=O)N2CCN(C3=CC4=NCC(C)N4C=N3)CC2)cc1 (centres undefined)
  RP-LC retention time: 638 s

## CCOC(=O)c1ccc(NC(=O)N2CCc3cn(CC)c4cccc(c34)C2)cc1
  RP-LC retention time: 1150 s

## CCCOc1nc2ccccc2nc1N1CCCC(C(=O)NCc2ccc(Cl)cc2)C1 (centres undefined)
  RP-LC retention time: 1270 s

## Cc1ccc(Cn2cccc2C(=O)C(=O)N2CCN(c3ccccn3)CC2)cc1C
  RP-LC retention time: 726 s

## COC(=O)c1ccc(C(=O)NCC2CCN(S(C)(=O)=O)CC2)cc1
  RP-LC retention time: 637 s

## COc1ccc(-c2nc3ccc(Cl)cn3c2Nc2ccc3c(c2)OCCO3)cc1
  RP-LC retention time: 750 s

## CCOc1cc(=O)n2c(c1C(=O)OCc1cccc(F)c1)CCCCC2
  RP-LC retention time: 934 s

## CCCn1c(CCNC(=O)c2ccc(F)c(F)c2)nc2cccnc21
  RP-LC retention time: 683 s

## Cn1c(=O)c2c3c(cnc2n(C)c1=O)C(=O)CC(c1ccc(F)cc1)C3 (centres undefined)
  RP-LC retention time: 940 s

## COc1ccc2nc(C(=O)N(C)Cc3ccccc3)cn2n1
  RP-LC retention time: 790 s

## Cc1noc(C)c1S(=O)(=O)N1CCCn2nc(-c3cccs3)cc2C1
  RP-LC retention time: 880 s

## O=C(Cn1ccc2ccc(N3CCOCC3)nc21)N1CCN(c2ccccn2)CC1
  RP-LC retention time: 616 s

## CN1C(=O)Cc2cc(C(=O)NCc3ccccc3C(F)(F)F)ccc21
  RP-LC retention time: 773 s

## Nc1cc(C2CCN(C(=O)c3ccc(Br)cc3)CC2)no1
  RP-LC retention time: 716 s

## COc1cccc(NC(=O)Cn2c(C(F)(F)F)nc3cc4c(cc32)OCCO4)c1
  RP-LC retention time: 841 s

## CCn1cc(-c2nc(C(=O)N3CCc4ccccc43)cs2)c2cccnc21
  RP-LC retention time: 1080 s

## O=C(Nc1cccc(Cl)c1)N1CCC(n2c(C(F)(F)F)nc3cccnc32)CC1
  RP-LC retention time: 961 s

## O=C(NCCc1cccs1)C1CCCN(c2nc3ccsc3c(=O)n2Cc2ccc(F)cc2)C1 (centres undefined)
  RP-LC retention time: 936 s

## CCn1c(=O)oc2cc(-c3noc(-c4ccc(OC)c(OC)c4)n3)ccc21
  RP-LC retention time: 990 s

## N#Cc1ccc(C(=O)Nc2cnc(-c3ccc(Cl)cc3)nc2)cc1
  RP-LC retention time: 1070 s

## Cc1cc(C)cc(Nc2nc(C)cc3nn(CC(=O)N4CCC(C)CC4)c(=O)n23)c1
  RP-LC retention time: 1160 s

## Cc1cccc(-c2nnc(-c3nc(N4CCCCC4C)c4ccccc4n3)o2)c1 (centres undefined)
  RP-LC retention time: 1270 s

## Nc1nc(N)c2cc(Sc3cccc(C(F)(F)F)c3)ccc2n1
  RP-LC retention time: 686 s

## COc1ccccc1CNC(=O)CN1CCc2[nH]c3c(C)c(Cl)ccc3c(=O)c2C1
  RP-LC retention time: 649 s

## Cn1c(CNC(=O)C2CCC2)nc2c1CN(S(=O)(=O)Cc1ccc(Cl)cc1)CC2
  RP-LC retention time: 586 s

## c1ccc(-c2nc(-c3ccc(-n4ccnc4)nc3)no2)cc1
  RP-LC retention time: 720 s

## CCCCN(C)c1ccc(NC(=O)c2cccs2)cc1C(=O)O
  RP-LC retention time: 623 s

## CC(C)c1ccc(C(=O)N2CCCC2COc2ccc(C(=O)NC3CC3)cc2)cc1 (centres undefined)
  RP-LC retention time: 910 s

## COc1ccc(NC(=O)C2CC(=O)N(c3ccc4c(c3)CCN4C(C)=O)C2)cc1OC (centres undefined)
  RP-LC retention time: 642 s

## CCOc1ccc2c(n1)CCN(C(=O)C1(c3ccc(OC)cc3)CC1)C2
  RP-LC retention time: 683 s

## O=c1ccn(-c2ccccc2)nc1-c1nc(-c2ccccn2)no1
  RP-LC retention time: 685 s

## CCc1ccc(-n2ncc3c(=O)n(Cc4nc(-c5ccc(F)cc5)no4)cnc32)cc1
  RP-LC retention time: 1170 s

## COc1ccc(N2CC(C(=O)NC(C(=O)N3CCCc4ccccc43)c3ccccc3)CC2=O)cc1 (centres undefined)
  RP-LC retention time: 900 s

## CCN(CC)C(=O)c1ccc2c(c1)N(CC(=O)NC(C)C)C(=O)C1CCCCN21 (centres undefined)
  RP-LC retention time: 735 s

## CCc1nnc(-c2ccc3ccn(CC(=O)Nc4cc(C)ccc4OC)c3c2)o1
  RP-LC retention time: 932 s

## CCCNC(=O)c1cn(-c2ncccc2-c2nc(C(C)(C)C)no2)cn1
  RP-LC retention time: 768 s

## CCCn1c(CCNC(=O)c2ccc(CC)cc2)nc2cccnc21
  RP-LC retention time: 723 s

## COc1cccc(NC(=O)N2CCOc3ccc(C)cc32)c1
  RP-LC retention time: 968 s

## Cc1ccc2cc(CCC(=O)NCCCN3CCCC3=O)c(=O)[nH]c2c1
  RP-LC retention time: 623 s

## COc1ccc(Br)cc1C1C(C(=O)N2CCOCC2)=C(C)NC2=C1C(=O)CCC2 (centres undefined)
  RP-LC retention time: 660 s

## Cc1cc2n(n1)CCCN2C(=O)CCC(=O)N1CCN(c2ccc(Cl)cc2)CC1
  RP-LC retention time: 758 s

## CC(C)(C)NC(=O)N1CCC(c2nc(CCNC(=O)C3CC3)cs2)CC1
  RP-LC retention time: 675 s

## CCCN1C(=O)COc2cc(-c3noc(C(=O)NC4CC4)n3)ccc21
  RP-LC retention time: 841 s

## Cc1sc(C)c(S(=O)(=O)NCc2cccs2)c1-c1cc(C(F)(F)F)on1
  RP-LC retention time: 1100 s

## CSc1ccc(NC(=O)C2CC(=O)N(c3ccc4c(c3)CCN4C(C)=O)C2)cc1 (centres undefined)
  RP-LC retention time: 730 s

## COc1ccc(NC(=O)Cn2nc3cc(-c4ccccc4)nc(C)n3c2=O)cc1
  RP-LC retention time: 661 s

## CCn1c(C(=O)NCCC2=CCCCC2)cc2sc(Cl)cc21
  RP-LC retention time: 1310 s

## O=C(NCc1ccc(F)cc1)c1ccc(=O)n(CCN2CCOCC2)c1
  RP-LC retention time: 599 s

## COc1ccc(S(=O)(=O)N2CCc3nc(-c4ccccc4)ncc3C2)cc1Cl
  RP-LC retention time: 1090 s

## COc1ccccc1NC(=O)N1CCN(c2cnn3c(C)nnc3c2)CC1
  RP-LC retention time: 605 s

## Cc1ccc(CC(=O)Nc2cc(-c3ccc(C)s3)no2)cc1
  RP-LC retention time: 1050 s

## CCC(C)NC(=O)c1cc(COc2ccc(NC(=O)CC(C)C)cc2)on1 (centres undefined)
  RP-LC retention time: 871 s

## O=C(NCCn1ncccc1=O)NCc1ccccc1
  RP-LC retention time: 578 s

## CCOCC(=O)N1CCCN(C2=NS(=O)(=O)C(c3ccc(C)c(C)c3)=C2C)CC1
  RP-LC retention time: 795 s

## O=C(COc1ccccc1F)Nc1nnc(-c2cc(Cl)sc2Cl)o1
  RP-LC retention time: 867 s

## CCCN1C(=O)CCc2cc(NC(=O)c3cc4ccccc4[nH]3)ccc21
  RP-LC retention time: 882 s

## CCOc1cc(=O)n2c(c1C(=O)OCc1ccc(Cl)cc1)CCCCC2
  RP-LC retention time: 991 s

## O=C(CCC1CCCC1)N1CCN(C(=O)c2cc(-c3ccccn3)n[nH]2)CC1
  RP-LC retention time: 715 s

## CCCN1C(=O)c2c(C(=O)NCc3ccccc3Cl)ncn2CC1(C)C(=O)NC1CCCC1 (centres undefined)
  RP-LC retention time: 868 s

## Cc1ccc(CN2C[C@@H](CO)[C@H](NC(=O)c3cnccn3)C2)o1
  RP-LC retention time: 550 s

## CCOCCOC(=O)C1=C(C)NC2=C(C(=O)CC(C)(C)C2)C1c1ccccc1OC (centres undefined)
  RP-LC retention time: 839 s

## COc1cccc(-c2noc(NC3CC3)n2)c1OC
  RP-LC retention time: 752 s

## Cc1ccc(-c2nc3cccc(C)n3c2Nc2ccccc2C)cc1
  RP-LC retention time: 797 s

## CCOc1ccccc1NC(=O)N1CCCC1c1nc(-c2ccc(F)cc2F)no1 (centres undefined)
  RP-LC retention time: 1100 s

## O=C(NC1CC1)c1ccc(OCC2CCCN2C(=O)C2CCC2)cc1 (centres undefined)
  RP-LC retention time: 741 s

## COc1ccc(NC(=O)C2CCN(S(=O)(=O)c3ccc4c(c3)sc(=O)n4C)CC2)cc1
  RP-LC retention time: 817 s

## Cc1ccc(CNC(=O)C2CCN(c3cncnc3N3CCOCC3)CC2)o1
  RP-LC retention time: 605 s

## CCCS(=O)(=O)N1CCCC(Cn2c(C)nc3cccnc32)C1 (centres undefined)
  RP-LC retention time: 572 s

## Cc1nc(C(=O)NCc2ccccc2C(F)(F)F)c(C)o1
  RP-LC retention time: 917 s

## O=C(CN1C(=O)C(C(=O)N2CCCC2)Sc2ccccc21)Nc1ccc(Cl)cc1 (centres undefined)
  RP-LC retention time: 1070 s
